The species entered for one experiment is Homo sapiens. In words: Selectivity ratio of Ki for human melatonin MT1 receptor to Ki for human melatonin MT2 receptor.
Experiment [1] concerns the target Melatonin receptor type 1A (Homo sapiens, UniProt P48039). As to the kind of experiment: Displacement of 2-[125I]iodomelatonin from human melatonin MT1 receptor expressed in CHO cells. The format is cell-based.
For experiment [2], the target named is T1, Melatonin receptor type 1B (Homo sapiens, UniProt P49286).
T1 sequence (P49286 whole entry): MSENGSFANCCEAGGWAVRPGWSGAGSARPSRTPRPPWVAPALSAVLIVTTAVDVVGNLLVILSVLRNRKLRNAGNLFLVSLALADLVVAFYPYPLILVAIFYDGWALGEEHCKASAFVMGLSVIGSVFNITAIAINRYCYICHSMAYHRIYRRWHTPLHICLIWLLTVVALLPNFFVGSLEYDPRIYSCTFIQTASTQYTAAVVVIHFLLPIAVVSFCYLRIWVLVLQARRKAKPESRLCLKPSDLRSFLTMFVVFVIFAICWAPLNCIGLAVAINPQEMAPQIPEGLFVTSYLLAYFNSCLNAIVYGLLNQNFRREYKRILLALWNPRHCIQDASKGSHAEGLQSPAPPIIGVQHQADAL
In words: Displacement of 2-[125I]iodomelatonin from human melatonin MT2 receptor expressed in CHO cells. The format is cell-based.

SMILES strings stand for the structures.

Among the data in ChEMBL document CHEMBL1156550, “Synthesis and pharmacological evaluation of pentacyclic 6a,7-dihydrodiindole and 2,3-dihydrodiindole derivatives as novel melatoninergic ligands” (Bioorg Med Chem, 2008) are Ratio Ki and Ki values, retold here.

What is called Ki is a measure of affinity in units of concentration, obtained from inhibition or displacement. Read a high Ki as weaker binding.

Chain of Melatonin receptor type 1A (P48039 whole entry): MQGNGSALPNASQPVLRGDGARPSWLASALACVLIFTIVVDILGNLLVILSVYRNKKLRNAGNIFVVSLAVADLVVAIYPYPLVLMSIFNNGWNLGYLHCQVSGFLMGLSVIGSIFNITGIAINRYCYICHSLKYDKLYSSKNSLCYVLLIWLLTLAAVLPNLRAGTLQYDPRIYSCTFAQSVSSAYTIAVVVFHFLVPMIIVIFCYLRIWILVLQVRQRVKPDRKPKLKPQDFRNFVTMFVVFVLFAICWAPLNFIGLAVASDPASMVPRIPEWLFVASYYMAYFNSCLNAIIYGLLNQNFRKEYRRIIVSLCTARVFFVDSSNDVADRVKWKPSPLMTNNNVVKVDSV

In the case of `COc1ccc2c(c1)CC(CO)N2Cc1[nH]c2ccc(OC)cc2c1CCNC(C)=O` (racemic), the Ratio Ki in the experiment filed under Homo sapiens stood at 1.03. Besides, the figures for the Ki in experiment [1] and in experiment [2] were 34.5 nM and 33.6 nM, respectively.

For `COc1ccc2c(c1)c(CCNC(C)=O)c1n2CC2Cc3ccccc3N2C1` (stereo unspecified), the Ratio Ki in the experiment filed under Homo sapiens stood at 4.89. Besides, the Ki in experiment [1] came out at 319 nM; in experiment [2], 65.2 nM.

`COc1ccc2c(c1)CC1Cn3c(c(CCNC(C)=O)c4cc(OC)ccc43)CN21` (stereo unspecified): the figures for the Ki in experiment [1] and in experiment [2] were 1800 nM and 410 nM, respectively.

Consider `COc1ccc2[nH]c(CN3c4ccccc4C[C@H]3CO)c(CCNC(C)=O)c2c1`, for which the Ratio Ki in the experiment filed under Homo sapiens turned out to be 1.25. The results for the Ki in experiment [1] and in experiment [2] were 9.8 nM and 7.8 nM, respectively.

With `CC(=O)NCCc1c2n(c3ccccc13)CC1Cc3ccccc3N1C2` (stereo unspecified), the inhibition constant (Ki) in experiment [1] worked out at 1000 nM; in experiment [2], 1700 nM.

Turning to `COc1ccc2[nH]c(CN3c4ccccc4CC3CO)c(CCNC(C)=O)c2c1` (racemic), the Ratio Ki in the experiment filed under Homo sapiens turned out to be 0.48. For the same molecule, the inhibition constant Ki in experiment [1] amounted to 17.5 nM; in experiment [2] it was 36.2 nM.
